These results are taken from US20020061839A1, “Serine peptidase modulators” (priority 1998, published 2002).

Where a name gives a salt, the structure may show the parent alone. Read-outs that look alike come from different tables or passages of the source.

The target in one series is T1, Prolyl oligopeptidase (Homo sapiens, UniProt P48147).
T1 construct: Prolyl oligopeptidase was purified from human platelets; from tissue; host or cells: human platelets
T1 sequence (P48147 1-710): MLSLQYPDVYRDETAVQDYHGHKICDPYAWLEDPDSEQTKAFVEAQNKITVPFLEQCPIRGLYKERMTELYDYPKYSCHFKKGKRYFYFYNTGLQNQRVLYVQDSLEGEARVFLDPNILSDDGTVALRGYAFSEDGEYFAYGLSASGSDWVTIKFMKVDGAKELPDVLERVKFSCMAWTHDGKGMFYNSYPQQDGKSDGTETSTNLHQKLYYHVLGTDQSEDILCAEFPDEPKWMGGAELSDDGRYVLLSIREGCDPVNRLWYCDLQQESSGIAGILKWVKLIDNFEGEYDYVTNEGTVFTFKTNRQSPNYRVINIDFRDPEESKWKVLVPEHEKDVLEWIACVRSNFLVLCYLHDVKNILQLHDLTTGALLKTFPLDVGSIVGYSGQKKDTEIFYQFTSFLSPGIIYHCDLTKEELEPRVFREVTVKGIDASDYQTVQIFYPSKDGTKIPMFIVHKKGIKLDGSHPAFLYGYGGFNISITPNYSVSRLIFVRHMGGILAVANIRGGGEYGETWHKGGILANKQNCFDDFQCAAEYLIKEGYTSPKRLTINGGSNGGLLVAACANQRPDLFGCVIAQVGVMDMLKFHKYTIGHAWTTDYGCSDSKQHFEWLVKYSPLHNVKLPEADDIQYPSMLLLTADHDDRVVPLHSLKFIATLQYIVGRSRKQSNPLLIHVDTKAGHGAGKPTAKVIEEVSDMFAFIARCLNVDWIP
The series is described as follows: Inhibition of prolyl oligopeptidase (PO), Z-Gly-Pro-AMC substrate. The series is classed as biochemical. The conditions noted are these: PO from human platelets, 20 min at 37° C. The protocol: Prolyl oligopeptidase was purified from human platelets and the enzyme activity was measured using Z—Gly—Pro—AMC (4.4 mM) as the substrate in a K-phosphate buffer 100 mM, pH 7.5 containing 1 EM EDTA, 1 mM dithiothreitol and 1 mM NaN3. The incubation was carried out during 20 min at 37° C. The reaction was stopped by the addition of 5 volumes 1.5 M acetic acid. Fluorescence was measured at 370 and 440 nm as excitation and emission wavelengths respectively. The inhibitors were added at concentrations varying between 1 μM and 1 mM.

A further series in a line: in vitro. Conditions: human, plasma.
In another series the target is T2, DPP IV (Homo sapiens, UniProt P27487).
T2 construct: DPP IV was purified from human seminal plasma as described previously; from tissue; host or cells: human seminal plasma
T2 sequence (P27487 whole entry): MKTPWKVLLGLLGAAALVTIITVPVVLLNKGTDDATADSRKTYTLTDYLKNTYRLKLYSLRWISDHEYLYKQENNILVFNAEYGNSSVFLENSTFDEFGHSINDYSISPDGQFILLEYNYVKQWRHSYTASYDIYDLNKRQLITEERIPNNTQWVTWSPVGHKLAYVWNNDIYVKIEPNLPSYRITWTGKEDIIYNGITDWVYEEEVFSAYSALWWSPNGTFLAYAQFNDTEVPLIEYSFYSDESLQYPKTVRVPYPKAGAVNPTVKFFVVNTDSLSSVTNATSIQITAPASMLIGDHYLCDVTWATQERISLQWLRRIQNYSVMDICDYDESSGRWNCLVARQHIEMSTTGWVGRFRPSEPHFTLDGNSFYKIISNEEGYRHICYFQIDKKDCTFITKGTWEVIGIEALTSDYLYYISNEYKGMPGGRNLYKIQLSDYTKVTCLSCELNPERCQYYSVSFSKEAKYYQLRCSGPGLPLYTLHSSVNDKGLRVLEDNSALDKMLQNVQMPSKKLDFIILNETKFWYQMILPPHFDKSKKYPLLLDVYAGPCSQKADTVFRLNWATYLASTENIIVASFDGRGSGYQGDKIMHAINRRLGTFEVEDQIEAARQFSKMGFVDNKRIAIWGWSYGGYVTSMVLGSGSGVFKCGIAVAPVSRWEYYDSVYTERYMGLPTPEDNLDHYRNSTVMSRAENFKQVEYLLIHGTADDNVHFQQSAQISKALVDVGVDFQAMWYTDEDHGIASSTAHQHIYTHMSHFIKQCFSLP
The series is described as follows: biochemical. Type of series: biochemical. Conditions: for kinact/KI: 0.25 h, pH 8.3, read-out: kcalc (second order rate constant of inactivation). The protocol:
Enzymatic activity was measured at 37° C. in a Spectramax 340 (Molecular Devices) microtiterplate reader using Gly—Pro-p-nitroanilide (Sigma) as a chromogenic substrate. […] The reaction mixture contained 2 mM substrate, approximately 1 mU of DPP IV, 40 EM TRIS-HCl buffer, pH 8.3, and a suitable amount of inhibitor (ranging between 0 an 10 mM) in a total volume of 0.2 ml. Activity measurements were routinely performed in duplicate.
Stock solutions were diluted with 50 mM TRIS-HCl buffer, pH 8.3, as required, immediately before the experiment. […] For a simple pseudo-first order inactivation process, the activity after incubation with inhibitor (vi) varies with the inhibitor concentration (i) as described in the following equation: vi=vo * e-k.i.t, where vo is the activity in absence of inhibitor, k is the second order rate constant of inactivation and t is the time.

The mark [1] stands for this setting: 15 min pre-incubation with DPP IV at 37° C., average ± standard deviation.

Usually IC50 stands for the midpoint of a concentration-inhibition curve. Take `CC(=O)Nc1cccc(OP(=O)(Oc2cccc(NC(C)=O)c2)C2CCCN2C(=O)[C@@H]2CCCN2C(=O)OCc2ccccc2)c1` (mixture of isomers) [10d, Di(3-acetamidophenyl) 1-(benzyloxycarbonyl-(S)-prolyl)-pyrrolidine-2(R,S)-phosphonate]: the IC50 at Prolyl oligopeptidase came out at 10 µM.

The compound `CC(=O)Nc1ccc(OP(=O)(Oc2ccc(NC(C)=O)cc2)C2CCCN2C(=O)[C@@H]2CCCN2C(=O)OCc2ccccc2)cc1` (mixture of isomers) [10e, Di(4-acetamidophenyl) 1-(benzyloxycarbonyl-(S)-prolyl)-pyrrolidine-2(R,S)-phosphonate] came in with an IC50 on Prolyl oligopeptidase of 21 µM.

At Prolyl oligopeptidase, `CS(=O)(=O)Nc1ccc(OP(=O)(Oc2ccc(NS(C)(=O)=O)cc2)C2CCCN2C(=O)[C@@H]2CCCN2C(=O)OCc2ccccc2)cc1` (mixture of isomers) [10f, Di(4-methylsulfonylaminophenyl) 1-(benzyloxycarbonyl-(S)-prolyl)pyrrolidine-2(R,S)-phosphonate] showed an IC50 of 10 µM. On to `O=C(CNC(=O)c1ccccc1)Nc1ccc(OP(=O)(Oc2ccc(NC(=O)CNC(=O)c3ccccc3)cc2)C2CCCN2C(=O)[C@@H]2CCCN2C(=O)OCc2ccccc2)cc1` (mixture of isomers) [10h, Di[4-(N-benzoylglycylamino)phenyl]-1-(benzyloxycarbonyl-(S)-prolyl)pyrrolidine-2(R,S)-phosphonate], for which the IC50 on Prolyl oligopeptidase was found to be 12 µM. Still for that read-out and setting: the value for `O=C(CNC(=O)OCc1ccccc1)Nc1ccc(OP(=O)(Oc2ccc(NC(=O)CNC(=O)OCc3ccccc3)cc2)C2CCCN2C(=O)[C@@H]2CCCN2C(=O)OCc2ccccc2)cc1` (mixture of isomers) [10i, Di[4-(N-benzyloxycarbonylglycylamino)phenyl]-1-(benzyloxycarbonyl-(S)-prolyl)pyrrolidine-2(R,S)-phosphonate] was 15 µM. Regarding `COC(=O)[C@H](Cc1ccc(OP(=O)(Oc2ccc(C[C@H](NC(C)=O)C(=O)OC)cc2)C2CCCN2C(=O)[C@@H]2CCCN2C(=O)OCc2ccccc2)cc1)NC(C)=O` (mixture of isomers) [10l, Di{4-[-(S)-(2-methoxycarbonyl-2-acetamido)ethyl]phenyl}1-(benzyloxycarbonyl-(S)-prolyl)pyrrolidine-2(R,S)-phosphonate], the midpoint of inhibition on Prolyl oligopeptidase, the IC50, lay at 20 µM. The same measure, in the same setting: the value for `CCOC(=O)CNC(=O)c1ccc(OP(=O)(Oc2ccc(C(=O)NCC(=O)OCC)cc2)C2CCCN2C(=O)[C@@H]2CCCN2C(=O)OCc2ccccc2)cc1` (mixture of isomers) [10n, Di{4-[(ethoxycarbonyl)methylaminocarbonyl]phenyl}1-(benzyloxycarbonyl-(S)-prolyl)-pyrrolidine-2(R,S)-phosphonate] was 5 µM.

Compound `COC(=O)CCNC(=O)c1ccc(OP(=O)(Oc2ccc(C(=O)NCCC(=O)OC)cc2)C2CCCN2C(=O)[C@@H]2CCCN2C(=O)OCc2ccccc2)cc1` (mixture of isomers) [10o, Di{4-[2-(methoxycarbonyl)ethylaminocarbonyl]phenyl}1-(benzyloxycarbonyl-(S)-prolyl)-pyrrolidine-2(R,S)-phosphonate] came in with an IC50 on Prolyl oligopeptidase of 2.8 µM. The same measure, in the same setting: the value for `CCCNC(=O)c1ccc(OP(=O)(Oc2ccc(C(=O)NCCC)cc2)C2CCCN2C(=O)[C@@H]2CCCN2C(=O)OCc2ccccc2)cc1` (mixture of isomers) [10p, Di[4-(n-propylaminocarbonyl)phenyl]1-(benzyloxycarbonyl-(S)-prolyl)-pyrrolidine-2(R,S)-phosphonate] was 3.2 µM. Usually half-life stands for the time in which the quantity being followed falls by half. A lower half-life goes with rapid decline. Regarding `CC(=O)Nc1cccc(OP(=O)(Oc2cccc(NC(C)=O)c2)C2CCCN2C(=O)[C@@H]2CCCN2)c1.Cl` (mixture of isomers) [11d, Di(3-acetamidophenyl) 1-((S)-prolyl)pyrrolidine-2(R,S)-phosphonate hydrochloride], the half-life at 1 mM in “in vitro” came to 3.67 ± 0.5 h. Take `CS(=O)(=O)Nc1ccc(OP(=O)(Oc2ccc(NS(C)(=O)=O)cc2)C2CCCN2C(=O)[C@@H]2CCCN2)cc1.Cl` (mixture of isomers) [11f, Di(4-methylsulfonylaminophenyl) 1-((S)-prolyl)-pyrrolidine-2(R,S)-phosphonate hydrochloride]: on DPP IV (DPP IV inhibition), the “potency compared to the diastereoisomeric mixture 5” value is given as “about 100 times”. The compound also returned a half-life at 1 mM in the series “in vitro” of 2.5 ± 0.5 h.

Turning to `NC(=O)Nc1cccc(OP(=O)(Oc2cccc(NC(N)=O)c2)C2CCCN2C(=O)[C@@H]2CCCN2)c1` (mixture of isomers) [11g, Di(3-ureylphenyl) 1-((S)-prolyl)pyrrolidine-2(R,S)-phosphonate hydrochloride], at DPP IV, the kinact/KI was 330 M⁻¹ s⁻¹. For the same compound, the IC50 against DPP IV (setting [1]) worked out at 2.3 ± 0.3 µM. For the same compound, the half-life at 1 mM in “in vitro” was 3.5 ± 1.33 h. In “in vitro”, `Cl.O=C(CNC(=O)c1ccccc1)Nc1ccc(OP(=O)(Oc2ccc(NC(=O)CNC(=O)c3ccccc3)cc2)C2CCCN2C(=O)[C@@H]2CCCN2)cc1` (mixture of isomers) [11h, Di[4-(N-benzoylglycylamino)phenyl]-1-((S)-prolyl)pyrrolidine-2(R,S)-phosphonate hydrochloride] yielded a half-life at 1 mM of 1.55 ± 0.05 h. The same measure, in the same setting: the value for `Cl.Cl.Cl.NCC(=O)Nc1ccc(OP(=O)(Oc2ccc(NC(=O)CN)cc2)C2CCCN2C(=O)[C@@H]2CCCN2)cc1` (mixture of isomers) [11i, Di[4-(N-glycylamino)phenyl]-1-((S)-prolyl)-pyrrolidine-2(R,S)-phosphonate trihydrochloride] was 0.467 ± 0.05 h. As to `C[C@H](N)C(=O)Nc1ccc(OP(=O)(Oc2ccc(NC(=O)[C@H](C)N)cc2)C2CCCN2C(=O)[C@@H]2CCCN2)cc1` (mixture of isomers) [11j, Di(4-(S)-alanylaminophenyl)-1-((S)-prolyl)pyrrolidine-2(R,S)-phosphonate trihydrochloride], the kinact/KI at DPP IV is 1300 M⁻¹ s⁻¹. Moreover, the IC50 at DPP IV (setting [1]) turned out to be 0.6 ± 0.2 µM. In “in vitro”, the half-life at 1 mM worked out at 0.133 ± 0.0167 h. Taken in the same sequence, the figures for `O=C1CC[C@@H](C(=O)Nc2ccc(OP(=O)(Oc3ccc(NC(=O)[C@@H]4CCC(=O)N4)cc3)C3CCCN3C(=O)[C@@H]3CCCN3)cc2)N1` (mixture of isomers) [11k, Di(4-(S)-pyroglutamylaminophenyl)-1-((S)-prolyl)pyrrolidine-2(R,S)-phosphonate hydrochloride] were 150 M⁻¹ s⁻¹, 5 ± 0.8 µM and 2.83 ± 0.5 h.

The compound `COC(=O)CCNC(=O)c1ccc(OP(=O)(Oc2ccc(C(=O)NCCC(=O)OC)cc2)C2CCCN2C(=O)[C@@H]2CCCN2)cc1.Cl` (mixture of isomers) [11o, Di{4-[2-(methoxycarbonyl)ethylaminocarbonyl]phenyl}1-((S)-prolyl)-pyrrolidine-2(R,S)-phosphonate hydrochloride] showed a half-life at 1 mM in the series “in vitro” of 0.433 ± 0.0167 h. Consider `CCCNC(=O)c1ccc(OP(=O)(Oc2ccc(C(=O)NCCC)cc2)C2CCCN2C(=O)[C@@H]2CCCN2)cc1.Cl` (mixture of isomers) [11p, Di[4-(n-propylaminocarbonyl)phenyl]1-((S)-prolyl)-pyrrolidine-2(R,S)-phosphonate hydrochloride], for which the half-life at 1 mM in the series “in vitro” stood at 0.2 ± 0.0167 h.

Turning to `COP(=O)(Oc1ccccc1-c1ccccc1O)C1CCCN1C(=O)[C@@H]1CCCN1` (mixture of isomers) [compound 18, 2-(2′-Hydroxyphenyl)phenyl methyl 1-(S)-prolyl)-pyrrolidine-2(R,S)-phosphonate hydrochloride], at DPP IV, the concentration for half-maximal inhibition (IC50) was 47 µM and the kinact/KI is 16 M⁻¹ s⁻¹. The same compound returned a half-life at 1 mM in the series “in vitro” of 2.33 ± 1.33 h.

As to `COC(=O)C(Cc1ccc(OP(=O)(Oc2ccc(CC(NC(C)=O)C(=O)OC)cc2)C2CCCN2C(=O)C2CCCN2)cc1)NC(C)=O` [11l, Di{4-[-(S)-(2-methoxycarbonyl-2-acetamido)ethyl]phenyl}1-((S)-prolyl)pyrrolidine-2-phosphonate hydrochloride], at DPP IV, half-maximal inhibition (IC50) was put at 1.4 µM and the kinact/KI is 550 M⁻¹ s⁻¹. Also, the half-life at 1 mM in the series “in vitro” turned out to be 3.17 ± 2.5 h.
